One series deals with H1437 NSCLC cell line. The series is described as follows: Cytotoxicity assay, H1437. The format is cell-based. To be noted: Homo sapiens, NCI-H1437; H1437 cells. How it is done:
(§1) Cell culture, imaging, and cytotoxicity assay
(§2) RPMI-1640 medium. NIH/3T3 was cultured in DMEM medium. A549 was cultured in F-12K medium. T24 were cultured in McCoy's 5A medium. All culture mediums were supplemented with 10% fetal bovine serum. The cells were incubated at 37 °C in an atmosphere containing 5% CO 2. […]
(§3) Cytotoxicity assay. All test cell lines were incubated in 96-well plates overnight at a density of 3000 cells/well. The culture medium was replaced with 200 μL of culture medium, into which the testing compound was dispersed at various concentrations (1.95 - 500 μM). After incubating for 3 days, the viable cell numbers were checked and directly counted under microscopy (10X). A minimum of 1mm×1mm area was counted from each of at least three widely separated regions of cell culture. The cell proliferation rate was calculated by the following formula: cell proliferation rate (%) = (average cell number of sample wells / average cell number of control wells) ×100%.
(§4) The intact culture medium was evaluated as a control. […]

For a further series, the system named is H2228 NSCLC cell line. Description: Cytotoxicity assay, H2228. The class given is cell-based. Conditions: Homo sapiens, NCI-H2228, H2228 cells. On the procedure:
as §1, §2, §3, §4
(§5) All animal experiments were performed in compliance with the Guidelines for the Care and Use of Research Animals as established by the Stanford University Animal Studies Committee. Female athymic nude mice (nu/nu) from 4−6 weeks old were obtained from Charles River Laboratories (Boston, MA, USA) and kept under sterile conditions. 5 × 106 human lung adenocarcinoma

In the next series the test system is bladder cancer T24 cell. Description: Cytotoxicity assay (direct cell counting), T24. The format is cell-based. On the procedure:
as §1, §2, §3, §4

A short description of series [1]: Cytotoxicity assay (direct cell counting), NIH-3T3. The format is cell-based. Conditions: mouse; NIH-3T3 normal cells; 3 days incubation, viable cells counted. How it is done: as §1, §2, §3, §4
The test system of the next series is NSCLC H838 cell. Description: Cytotoxicity assay (direct cell counting), H838. The class given is cell-based. Conditions: Homo sapiens, NCI-H838, 72 h, H838 cells; 3 days incubation, viable cells counted. On the procedure:
as §1, §2, §3, §4, §5

The next series has as its system H2030 NSCLC cell line. Description: Cytotoxicity assay, H2030. To be noted: Homo sapiens, NCI-H2030; H2030 cells. The class given is cell-based. On the procedure:
as §1, §2, §3, §4

In the next series the test system is H838 cells' mitochondria. Description: Effect of membrane potential (high K+ medium, FCCP) on 5BMF accumulation. The class given is cell-based. How it is done:
To verify that F16 derivatives preserve the same property, H838 cells were preincubated in high K^+ medium (137 mM) to depolarize the plasma membrane, then 5BMF (3 μM) was added and incubated for 30 min. […] As with other DLCs, the selectivity of F16s for mitochondria is driven by the negative transmembrane potential.[18]
Mitotracker® Red (Molecular Probes) and Hoechst (Thermo Scientific) were added to the medium to stain the mitochondria and nuclei, following the manufacturer’s procedures. Cells were photographed as previously described using a 63× oil or 20× objective lens.
The effect of membrane potential on 5BMF accumulation was performed through staining HCC827 cells in low K+ and high K+ buffer, instead of RPMI-1640 culture medium. Low K+ buffer contains 137 mM NaCl, 3.6 mM KCI, 0.5 mM MgCl2, 1.8 mM CaCl2 of RPMI-1640 medium (GIBCO). […]
Cytotoxicity assay. […] After incubating for 3 days, the viable cell numbers were checked and directly counted under microscopy (10X). A minimum of 1mm×1mm area was counted from each of at least three widely separated regions of cell culture. The cell proliferation rate was calculated by the following formula: cell proliferation rate (%) = (average cell number of sample wells / average cell number of control wells) ×100%.
as §4

Series [2] in a line: Relative fluorescence quantum yield. Conditions: EtOH, relative to rhodamine 6G, excited at 425 nm. The class given is physicochemical. How it is done: Quantum yield. The fluorescence quantum yields of F16s were determined according to the […]
Where Φ is the quantum yield, F is the integrated area under the corrected emission spectrum, and A is the absorbance at the excitation wavelength; the subscripts x and s refer to F16s and the standard, respectively. Rhodamine 6G (ΦF = 95%) in ethanol was used as the standard. All F16s and Rhodamine 6G were dissolved in ethanol in 5 different concentrations with the absorbance lower than 0.1 at 425nm. The corresponding 5 different fluorescences of F16s and Rhodamine 6G were excited at 425 nm and the emission spectra from 450 nm to 650 nm were obtained for the following integrated area measurement. All data were analyzed using Origin Pro 9.0 software (OriginLab, Northampton, Massachusetts, USA) to get the F16s final quantum yield. […]

This note sets out measurements from paper PMC6836573, “Mitochondria-targeting fluorescent molecules for high efficiency cancer growth inhibition and imaging” (Chemical Science, 2019).

On to `Cc1cc(Br)cc2c(/C=C/c3cc[n+](C)cc3)c[nH]c12` [5BMF], for which the IC50 (usually the concentration that gives 50% inhibition) is 1430 nM in the series with H1437 NSCLC cell line; around 50 nM with H2228 NSCLC cell line; 820 nM in the series on bladder cancer T24 cell (Homo sapiens, T-24, 72 h, T24 cells, 3 days incubation, viable cells counted); 360 nM in the series with NSCLC H838 cell; 102 nM in the series with H2030 NSCLC cell line. Further, the selectivity indices in the series on bladder cancer T24 cell (3T3 versus T24 and H838) was above 10. Besides, the IC50 at 3 days in series [1] is 11000 nM. The “accumulation in mitochondria in high K+ medium versus low K+ medium” value in the series on H838 cells' mitochondria (H838 cells, 3 μM, 30 min, high K+ 137 mM, low K+ 3.6 mM) was “much less 5BMF accumulation in mitochondria”. For the same molecule, the “mitochondrial staining after addition of FCCP” value with H838 cells' mitochondria (cells preloaded with 5BMF, FCCP 5 µM, 1 and 3 min) is “immediately decayed and diffused into the cytoplasm”. In addition, the “Quantum Yield” value in series [2] was 19.7%; in series [2] (listed as 3), “around 20%”.
